The record followed here is US20100119599A1 (ARCHER PHARMACEUTICALS, INC., priority 2006, published 2010).

The subject of one test is Aβ1-42. Put plainly: Measurement of Aβ1-42 in culture medium of 7W WT APP751 CHO cells by ELISA. Format: cell-based, Chinese hamster. To be noted: for Aβ1-42 (% of control): CHO cells that overexpress APP751, zero = below the detection limit of the assay; for activity at 5 µM: Cricetulus griseus, Table 1, 5 μM test compound, CHO cells stably transfected with human APP751, culture medium, ELISA, control DMSO, 0 = no detectable amount, read-out: Aβ1-42 (% of control). For orientation: In an ELISA, binding on a coated surface is turned into a signal by an enzyme label.

The next test relates to Aβ1-40. Put plainly: Measurement of Aβ1-40 in culture medium of 7W WT APP751 CHO cells by ELISA. The settings on record: for Aβ1-40 (% of control): CHO cells that overexpress APP751, zero = below the detection limit of the assay; for activity at 5 µM: Cricetulus griseus, Table 1, 5 μM test compound, CHO cells stably transfected with human APP751, culture medium, ELISA, control DMSO, 0 = no detectable amount. Format: cell-based, Chinese hamster.
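Also: 5 µM test compound but RI-coded compounds at 10 µM for 24 hours.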

Turning to `CCOC(=O)C1=CN(c2cc(C)ccc2C)C=C(C(=O)OCC)C1c1cc(OC)c(OC)cc1OC` [ST052474, ethyl 1-(2,5-dimethylphenyl)-5-(ethoxycarbonyl)-4-(2,4,5-trimethoxyphenyl)-1,4-dihydropyridine-3-carboxylate], the “Aβ1-42 (% of control)” value in the test with Aβ1-42 was 3.498 % of control. The “Aβ1-40 (% of control)” value with Aβ1-40 is 5.404 % of control.
Consider `CCCCCOC(=O)C1=C(C)NC2=C(C(=O)CCC2)C1c1cccc(Cl)c1` (stereo not drawn) [ST013152, pentyl 4-(3-chlorophenyl)-2-methyl-5-oxo-1,4,6,7,8-pentahydroquinoline-3-carboxylate], for which the activity at 5 µM in the test with Aβ1-42 worked out at 33.2%; in the test with Aβ1-40 it was 22%.
The matching figures for `CCOc1ccc(C2C(C(=O)OC(C)C)=C(C)NC3=C2C(=O)CC(c2ccc(OC)cc2)C3)cc1` (stereo not drawn) [ST017011, methylethyl 4-(4-ethoxyphenyl)-7-(4-methoxyphenyl)-2-methyl-5-oxo-1,4,6,7,8-pentahydroquinoline-3-carboxylate]: 74% and 45.7%.
For `CCCCOc1ccccc1C1C(C(=O)OCCc2ccccc2)=C(C)NC2=C1C(=O)CC(C)(C)C2` (stereo not drawn) [ST014907, 2-phenylethyl 4-(2-butoxyphenyl)-2,7,7-trimethyl-5-oxo-1,4,6,7,8-pentahydroquinoline-3-carboxylate], in that order: 83.5% and 34.6%.
The matching figures for `CC1=C(C(=O)OCCc2ccccc2)C(c2ccccc2C(F)(F)F)C2=C(CCCC2=O)N1` (stereo not drawn) [ST052228, 2-phenylethyl 2-methyl-5-oxo-4-[2-(trifluoromethyl)phenyl]-1,4,6,7,8-pentahydroquinoline-3-carboxylate]: 36.9% and 60.4%.
For the compound `COc1ccc(Br)cc1C1C(C(=O)OCC2CCCO2)=C(C)NC2=C1C(=O)CCC2` (stereo not drawn) [ST052224, oxolan-2-ylmethyl 4-(5-bromo-2-methoxyphenyl)-2-methyl-5-oxo-1,4,6,7,8-pentahydroquinoline-3-carboxylate], the activity at 5 µM with Aβ1-42 is 68.1%; with Aβ1-40, 76.9%.
The matching figures for `CCOc1cc(C2C(C(=O)OCCSCC)=C(C)NC3=C2C(=O)CC(c2ccc(Cl)cc2)C3)ccc1O` (stereo not drawn) [ST017243, 2-ethylthioethyl 7-(4-chlorophenyl)-4-(3-ethoxy-4-hydroxyphenyl)-2-methyl-5-ox o-1,4,6,7,8-pentahydroquinoline-3-carboxylate]: 15.6% and 69.6%.
The matching figures for `CC1=C(C(=O)OCCc2ccccc2)C(c2cc3c(cc2Br)OCO3)C2=C(CC(C)(C)CC2=O)N1` (stereo not drawn) [ST014885, 2-phenylethyl 4-(6-bromo(2H-benzo[d]1,3-dioxolen-5-yl))-2,7,7-trimethyl-5-oxo-1,4,6,7,8-pentahydroquinoline-3-carboxylate]: 87.5% and 39.5%.
As for `CCc1ccc(C2C(C(=O)OCC(C)C)=C(C)NC3=C2C(=O)CC(c2ccccc2)C3)cc1` (stereo not drawn) [ST016970, 2-methylpropyl 4-(4-ethylphenyl)-2-methyl-5-oxo-7-phenyl-1,4,6,7,8-pentahydroquinoline-3-carboxylate], the results for the activity at 5 µM with Aβ1-42 and with Aβ1-40 were 27.8% and 27.7%, respectively.
Regarding `CCOCCOC(=O)C1=C(C)NC2=C(C(=O)CCC2)C1c1cc(OC)c(OC)c(OC)c1` (stereo not drawn) [ST013345, 2-ethoxyethyl 2-methyl-5-oxo-4-(3,4,5-trimethoxyphenyl)-1,4,6,7,8-pentahydroquinoline-3-carboxylate], the activity at 5 µM in the test on Aβ1-42 stood at 75.4%; in the test with Aβ1-40, 58.4%.
As for `N#CC1=C(N)n2c(s/c(=C/c3cccc(Br)c3)c2=O)=C(C#N)C1c1cccc(Br)c1` (stereo not drawn) [ST024841, 5-amino-7-(3-bromophenyl)-2-[(3-bromophenyl)methylene]-3-oxo-4,7-dihydro-1,3-thiazolidino[3,2-a]pyridine-6,8-dicarbonitrile], the “Aβ1-42 (% of control)” value with Aβ1-42 was 95.58 % of control. In the test on Aβ1-40, the “Aβ1-40 (% of control)” value is reported as 61.78 % of control.
For `CCc1cccc(NC(=O)CSC2=C(C#N)C(c3ccc(Cl)s3)C(C(=O)Nc3ccccc3)=C(C)N2)c1` (stereo not drawn) [RI_88], in that order: 54.6 % of control and 70.1 % of control.
As for `N#CC1=C2NC(=O)c3c(sc4c3CCCCC4)N2C2=C(C(=O)CCC2)C1c1ccc(F)cc1` (stereo not drawn) [ST041668, 5-(4-fluorophenyl)-4,8-dioxo-1,2,3,5,7,9,10,11,12,13,15-undecahydrocyclohepta[1,2-b]quinolino[1′,2′-2,1]pyrimidino[5,6-d]thiophene-6-carbonitrile], the activity at 5 µM in the test on Aβ1-42 came to 27.9%; in the test with Aβ1-40 it was 88.7%.
The matching figures for `CC1=C(C(=O)OCC2CCCO2)C(c2cccc(Cl)c2)C2=C(CC(c3cccs3)CC2=O)N1` (stereo not drawn) [ST051818, oxolan-2-ylmethyl 4-(3-chlorophenyl)-2-methyl-5-oxo-7-(2-thienyl)-1,4,6,7,8-pentahydroquinoline-3-carboxylate]: 72.9% and 37%.
For `CCCOC(=O)C1=C(C)NC2=C(C(=O)CCC2)C1c1ccc(C)cc1` (stereo not drawn) [ST013247, propyl 2-methyl-4-(4-methylphenyl)-5-oxo-1,4,6,7,8-pentahydroquinoline-3-carboxylate], in that order: 55% and 35.5%.
The matching figures for `CCOCCOC(=O)C1=C(C)NC2=C(C(=O)CCC2)C1c1cccc(O)c1` (stereo not drawn) [ST013342, 2-ethoxyethyl 4-(3-hydroxyphenyl)-2-methyl-5-oxo-1,4,6,7,8-pentahydroquinoline-3-carboxylate]: 55.5% and 69.7%.
As for `CCCOCCOC(=O)C1=C(C)NC2=C(C(=O)CC(C)(C)C2)C1c1ccccc1Cl` (stereo not drawn) [ST052454, 2-propoxyethyl 4-(2-chlorophenyl)-2,7,7-trimethyl-5-oxo-1,4,6,7,8-pentahydroquinoline-3-carboxylate], the activity at 5 µM in the test with Aβ1-42 was 33.2%; in the test on Aβ1-40, 25.6%.
With `CCc1cccc(NC(=O)CSC2=C(C#N)C(c3ccc(-c4ccco4)s3)C(C(=O)Nc3ccccc3)=C(C)N2)c1` (stereo not drawn) [RI_85], the “Aβ1-42 (% of control)” value in the test with Aβ1-42 was 46.7 % of control. In the test with Aβ1-40, the “Aβ1-40 (% of control)” value is 98.5 % of control.
Consider `CCc1ccc(NC(=O)CSC2=C(C#N)C(c3cccs3)C(C(=O)Nc3ccccc3)=C(C)N2)cc1` (stereo not drawn) [RI_61], for which the “Aβ1-42 (% of control)” value with Aβ1-42 is listed as 51.4 % of control. In addition, in the test on Aβ1-40, the “Aβ1-40 (% of control)” value is recorded as 68.5 % of control.
The matching figures for `CCc1cccc(NC(=O)CSC2=C(C#N)C(c3ccsc3)C(C(=O)Nc3ccccc3)=C(C)N2)c1` (stereo not drawn) [RI_44]: 60.1 % of control and 93.1 % of control.
The matching figures for `CC1=C(C(=O)OC(C)(C)C)C(c2ccc(Cl)cc2)C(C#N)=C(SCC(=O)Nc2cccc(C)c2C)N1` (stereo not drawn) [ST050424, tert-butyl 6-{[N-(2,3-dimethylphenyl)carbamoyl]methylthio}-4-(4-chlorophenyl)-5-cyano-2-methyl-1,4-dihydropyridine-3-carboxylate]: 52.29 % of control and 41.21 % of control.
On to `CC1=C(C(=O)OC2CCCC2)C(c2cccs2)C2=C(CCCC2=O)N1` (stereo not drawn) [ST017171, cyclopentyl 2-methyl-5-oxo-4-(2-thienyl)-1,4,6,7,8-pentahydroquinoline-3-carboxylate], for which the results for the activity at 5 µM in the test on Aβ1-42 and with Aβ1-40 were 63.4% and 62.5%, respectively.
The matching figures for `CC1=C(C(=O)OCCOc2ccccc2)C(c2ccc(Cl)cc2)C2=C(CC(C)(C)CC2=O)N1` (stereo not drawn) [ST015093, 2-phenoxyethyl 4-(4-chlorophenyl)-2,7,7-trimethyl-5-oxo-1,4,6,7,8-pentahydroquinoline-3-carboxylate]: 0% and 0%.
For `CCOc1ccc(C2C(C(=O)OC(C)C)=C(C)NC3=C2C(=O)CCC3)cc1OC` (stereo not drawn) [ST013323, methylethyl 4-(4-ethoxy-3-methoxyphenyl)-2-methyl-5-oxo-1,4,6,7,8-pentahydroquinoline-3-carboxylate], in that order: 80.1% and 56.7%.
Regarding `CC1=C(C(=O)Nc2ccccc2)C(c2cccs2)C(C#N)=C(SCC(=O)NCc2ccccc2)N1` (stereo not drawn) [RI_22], the “Aβ1-42 (% of control)” value in the test on Aβ1-42 was 47.6 % of control. Besides, the “Aβ1-40 (% of control)” value with Aβ1-40 was 60.9 % of control.
Consider `CCOC(=O)C1=C(C)NC2=C(C(=O)CC(c3ccccc3)C2)C1c1ccccn1` (stereo not drawn) [ST017251, ethyl 2-methyl-5-oxo-7-phenyl-4-(2-pyridyl)-1,4,6,7,8-pentahydroquinoline-3-carboxylate], for which the values for the activity at 5 µM in the test with Aβ1-42 and in the test with Aβ1-40 were 34.3% and 90.4%, respectively.
The matching figures for `CCc1ccc(C2C(C(=O)OC(C)CC)=C(C)NC3=C2C(=O)CC(c2ccc(OC)cc2)C3)cc1` (stereo not drawn) [ST017092, methylpropyl 4-(4-ethylphenyl)-7-(4-methoxyphenyl)-2-methyl-5-oxo-1,4,6,7,8-pentahydroquinoline-3-carboxylate]: 30.9% and 41.3%.
The matching figures for `CCOC(=O)C1=C(C)NC2=C(C(=O)CCC2)C1c1ccc(N(C)C)cc1` (stereo not drawn) [ST013066, ethyl 4-[4-(dimethylamino)phenyl]-2-methyl-5-oxo-1,4,6,7,8-pentahydroquinoline-3-carboxylate]: 96.7% and 68.4%.
The matching figures for `CC1=C(C(=O)OCCOc2ccccc2)C(c2coc3ccc(C)cc3c2=O)C2=C(CCCC2=O)N1` (stereo not drawn) [ST052330, 2-phenoxyethyl 2-methyl-4-(6-methyl-4-oxochromen-3-yl)-5-oxo-1,4,6,7,8-pentahydroquinoline-3-carboxylate]: 15.5% and 42.6%.
On to `N#CC1=C(N)N(c2c(F)cccc2F)C2=C(C(=O)CCC2)C1c1ccsc1` (stereo not drawn) [ST051960, 2-amino-1-(2,6-difluorophenyl)-5-oxo-4-(3-thienyl)-1,4,6,7,8-pentahydroquinoline-3-carbonitrile], for which the activity at 5 µM in the test with Aβ1-42 amounted to 86.3%; in the test on Aβ1-40, 48.8%.
